Measurements taken from ChEMBL document CHEMBL1201862, “PubChem BioAssay data set” (2004).
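How tested: cells in 96-well plates exposed to compound for 48 hours at five concentrations. The concentration for 50% growth inhibition is given as GI50.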 Active and inactive are the calls of the source. Rule as the data show it: active = GI50 up to about 1.1 µM and inactive = higher.

Legend:
Test in all cases: DTP human tumour cell line panel, 48 h
UO-31 = tested on: UO-31
ACHN = tested on: ACHN
MOLT-4 = tested on: MOLT-4
LOX IMVI = tested on: LOX IMVI
SF-268 = tested on: SF-268
OVCAR-3 = tested on: OVCAR-3
SK-MEL-28 = tested on: SK-MEL-28
786-0 = tested on: 786-0
NCI-H226 = tested on: NCI-H226
KM12 = tested on: KM12
SW-620 = tested on: SW-620
K562 = tested on: K562
UACC-62 = tested on: UACC-62
HCC 2998 = tested on: HCC 2998
U-251 = tested on: U-251
SK-MEL-5 = tested on: SK-MEL-5
OVCAR-4 = tested on: OVCAR-4
HOP-62 = tested on: HOP-62
Malme-3M = tested on: Malme-3M

Structure (SMILES) | GI50 (UO-31) | GI50 (ACHN) | GI50 (MOLT-4) | GI50 (LOX IMVI) | GI50 (SF-268) | GI50 (OVCAR-3) | GI50 (SK-MEL-28) | GI50 (786-0) | GI50 (NCI-H226) | GI50 (KM12) | GI50 (SW-620) | GI50 (K562) | GI50 (UACC-62) | GI50 (HCC 2998) | GI50 (U-251) | GI50 (SK-MEL-5) | GI50 (OVCAR-4) | GI50 (HOP-62) | GI50 (Malme-3M)
CCCCCC(=O)N[C@H]1CCc2cc(O)c(O)c(O)c2-c2ccc(SC)c(=O)cc21 | > 77.6 µM (inactive) | > 100 µM (inactive) | 27.8 µM (inactive) | 23.1 µM (inactive) | 38.7 µM (inactive) | 35.2 µM (inactive) | 48.3 µM (inactive) | 44.5 µM (inactive) | 28.2 µM (inactive) | 39.6 µM (inactive) | 17.8 µM (inactive) | 6.47 µM (inactive) | 31.6 µM (inactive) | 32.9 µM (inactive) | 27.9 µM (inactive) | 28.4 µM (inactive) | 18.1 µM (inactive) | 47 µM (inactive) | > 80.5 µM (inactive)
O=C(OCc1ccccc1CN1CCOCC1)c1cccc(Br)c1 | 62.2 µM (inactive) | 63.1 µM (inactive) | < 0.01 µM (active) | 31.3 µM (inactive) | 62.8 µM (inactive) | 17.7 µM (inactive) | 33.1 µM (inactive) | 74.8 µM (inactive) | 44.8 µM (inactive) |  | 53.6 µM (inactive) | 6.3 µM (inactive) | 33.6 µM (inactive) | 28.3 µM (inactive) | 47.6 µM (inactive) | 17.7 µM (inactive) | 20.9 µM (inactive) | 53.2 µM (inactive) | 21.7 µM (inactive)
Cc1ccc(NC(=O)C2C3CCC(O3)C2C(=O)O)cc1 (stereo unspecified) | > 100 µM (inactive) | > 93.5 µM (inactive) | > 87.9 µM (inactive) | > 38.7 µM (inactive) | > 53.2 µM (inactive) | > 52.2 µM (inactive) | > 75 µM (inactive) | > 40.6 µM (inactive) | 56.5 µM (inactive) | > 100 µM (inactive) | > 22.3 µM (inactive) | > 48.2 µM (inactive) | > 46.6 µM (inactive) | 99.1 µM (inactive) | 43.1 µM (inactive) | > 75 µM (inactive) | > 100 µM (inactive) | > 100 µM (inactive) | > 100 µM (inactive)
OC1CN(OC/C=C/c2ccccc2)CC(O)C1O (stereo unspecified) | > 100 µM (inactive) | > 100 µM (inactive) | > 100 µM (inactive) | 46.1 µM (inactive) | > 100 µM (inactive) | > 100 µM (inactive) | > 100 µM (inactive) | 21.1 µM (inactive) | > 100 µM (inactive) | 72.3 µM (inactive) | 36.1 µM (inactive) | > 100 µM (inactive) | > 100 µM (inactive) | > 100 µM (inactive) | > 100 µM (inactive) | > 100 µM (inactive) | > 100 µM (inactive) | > 100 µM (inactive) | > 100 µM (inactive)
Cc1cccc(C2=C/C(=C(\SS/C(C(=O)c3ccc(OCC(=O)O)c(Cl)c3Cl)=C3\C=C(c4cccc(C)c4)SS3)C(=O)c3ccc(OCC(=O)O)c(Cl)c3Cl)SS2)c1 | 13 µM (inactive) | 12.4 µM (inactive) | 13.6 µM (inactive) | 4.69 µM (inactive) | 10.8 µM (inactive) | 14.2 µM (inactive) | 18.6 µM (inactive) | 20 µM (inactive) | 12.1 µM (inactive) | 23.3 µM (inactive) | 18.1 µM (inactive) | 4.31 µM (inactive) | 13.8 µM (inactive) | 31 µM (inactive) | 4.51 µM (inactive) | 15.9 µM (inactive) | 17.2 µM (inactive) | 47.1 µM (inactive) | 25.5 µM (inactive)
Cc1ccc(NC(=O)CC(=O)n2nc(-c3ccccc3)c(/N=N/c3ccc(Cl)cc3)c2-c2ccccc2)cc1 | > 100 µM (inactive) | 27.6 µM (inactive) | 83.9 µM (inactive) | 15.6 µM (inactive) | > 100 µM (inactive) | 42.6 µM (inactive) | > 100 µM (inactive) | 21.1 µM (inactive) | > 100 µM (inactive) | 36.5 µM (inactive) | 15.2 µM (inactive) | 13.5 µM (inactive) | > 100 µM (inactive) | 84.5 µM (inactive) |  | > 100 µM (inactive) | 23.3 µM (inactive) | 50.6 µM (inactive) | > 100 µM (inactive)
C=C1CC(CCCl)(c2ccccc2)OC1=O (stereo unspecified) | 58.3 µM (inactive) | 32.5 µM (inactive) | 21.1 µM (inactive) | 30.5 µM (inactive) | > 67 µM (inactive) | 26.1 µM (inactive) | 16.2 µM (inactive) | 17.4 µM (inactive) | > 100 µM (inactive) | 44.7 µM (inactive) | 20.2 µM (inactive) | 33.3 µM (inactive) | 48.4 µM (inactive) | 35.7 µM (inactive) | > 59.3 µM (inactive) | > 100 µM (inactive) | > 100 µM (inactive) | > 100 µM (inactive) | 23.6 µM (inactive)
